One may read the IC50 as the midpoint of a concentration-inhibition curve. A low value points to inhibition by little substance.

The target in the test is T1, Angiotensin II receptor (AT-1) type-1 (Rattus norvegicus, UniProt P29089+P25095).
T1 sequence (P29089 whole entry): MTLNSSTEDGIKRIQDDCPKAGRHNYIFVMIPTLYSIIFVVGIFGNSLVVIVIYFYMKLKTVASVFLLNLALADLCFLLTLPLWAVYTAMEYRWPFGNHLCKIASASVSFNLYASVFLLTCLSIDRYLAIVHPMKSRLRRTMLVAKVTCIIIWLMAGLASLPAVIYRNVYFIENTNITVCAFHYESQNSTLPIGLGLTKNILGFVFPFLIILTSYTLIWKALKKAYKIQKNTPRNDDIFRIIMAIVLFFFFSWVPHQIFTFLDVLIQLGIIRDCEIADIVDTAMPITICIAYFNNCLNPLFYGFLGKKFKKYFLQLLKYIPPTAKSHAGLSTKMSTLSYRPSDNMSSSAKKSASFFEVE
T1 sequence (P25095 whole entry): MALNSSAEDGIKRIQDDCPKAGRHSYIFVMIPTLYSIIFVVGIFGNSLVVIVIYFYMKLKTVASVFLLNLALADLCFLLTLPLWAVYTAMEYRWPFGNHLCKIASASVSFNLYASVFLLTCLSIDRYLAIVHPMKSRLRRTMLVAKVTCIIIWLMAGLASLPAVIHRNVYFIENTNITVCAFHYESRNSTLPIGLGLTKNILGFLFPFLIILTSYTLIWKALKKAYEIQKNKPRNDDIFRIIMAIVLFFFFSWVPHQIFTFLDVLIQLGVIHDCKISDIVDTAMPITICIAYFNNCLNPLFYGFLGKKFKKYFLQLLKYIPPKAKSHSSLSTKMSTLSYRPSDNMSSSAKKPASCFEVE
The test can be described thus: Binding affinity against Angiotensin II receptor, type 1 using [125I]Sar-Ile8-AII in rat liver membranes. The class given is cell membranes, Membrane.

The structures appear in SMILES notation.

`Cc1cc(C)c2nc(C3CC3)n(C3CCc4cc(-c5ccccc5-c5nn[nH]n5)ccc43)c2n1` (stereo not drawn) came in with an IC50 of 0.2 nM. In turn, `CCc1nc2c(C)ccnc2n1C1CCc2cc(-c3ccccc3-c3nn[nH]n3)ccc21` (stereo not drawn) returned a 50% inhibitory concentration (IC50) of 120 nM. Compared with the last compound, the IC50 is about 600-fold higher. Then `CCCc1nc2c(C)cc(C)nc2n1C1CCc2cc(-c3ccccc3-c3nn[nH]n3)ccc21` (stereo not drawn), with 14 nM; and `CCc1nc2c(C)cc(C)nc2n1C1CCCCc2cc(-c3ccccc3-c3nn[nH]n3)ccc21` (stereo not drawn), with 220 nM. The same measure for `CCc1nc2c(C)cc(C)nc2n1C1CCc2cc(-c3ccccc3-c3nn[nH]n3)ccc21` (stereo not drawn): 11 nM; for `CCc1nc2c(C)cc(C)nc2n1C1CCCc2cc(-c3ccccc3-c3nn[nH]n3)ccc21` (stereo not drawn): 120 nM.

Turning to `CCCCc1nc2c(C)cc(C)nc2n1C1CCc2cc(-c3ccccc3-c3nn[nH]n3)ccc21` (stereo not drawn), the IC50 came to 30 nM.

In turn, `Cc1cc(C)c2nc(C(C)C)n(C3CCc4cc(-c5ccccc5-c5nn[nH]n5)ccc43)c2n1` (stereo not drawn) returned an IC50 of 70 nM.

For the origin of these results see ChEMBL document CHEMBL1127879, “A conformationally restrained series of AT1-selective angiotensin II antagonists” (Bioorg Med Chem Lett, 1994).
